Measurements taken from patent US12474342B2, “Methods for treating cancer and the use of biomarkers as a predictor of clinical sensitivity to therapies” (CELGENE CORPORATION, priority 2016, dated 2025).
Where two headings read alike, the source gives them in different places.

Legend:
HNT-34 cells = test: Anti-proliferation 72-hour CTG assay, HNT-34; format: cell-based; conditions: Homo sapiens
Method: A plethora of AML cell lines were treated with serial dilutions of Compound D. IC50 value of the anti-proliferation effect of Compound D (as determined in 72-hour CTG assays) in each cell line is summarized in Table 1.

PARP = PARP cleavage, western blot, HNT-34; format: cell-based, human; conditions: HNT-34, 10 nM Compound D
Method: The time course of GSPT1 degradation was monitored by western blot analysis of HNT-34 AML cells and normal PBMCs (FIGS. 32A-32D) following incubation with Compound D (1, 10, and 100 nM).

IKZF1 = IKZF1 (Homo sapiens, UniProt Q13422+Q96SW2); conditions: NB4 cell line
GSPT1 [1] = target: T1, GSPT1 (Homo sapiens, UniProt P15170+Q96SW2); test: GSPT1 degradation in NB4 cell line; format: cell-based; parameters: endogenous in cells; conditions: NB4 cell line
GSPT1 [2] = target: T1, GSPT1; test: GSPT1 protein reduction, western analysis, KG-1; format: cell-based; parameters: reduction in GSPT1 protein level was evaluated in human normal PBMCs; endogenous in cells; host or cells: primary PBMCs from normal donors (ID 4328, 4379) and AML patients (ID 11SH, 09P6)
Method: Cells were treated with DMSO alone, 200 nM Compound D, or 200 nM Compound E. After 8 or 12 hours, the expression levels of various cellular components along UPR or apoptosis pathways were measured. […] Reduction of BIP indicates UPR.
To further investigate the timeline of cellular events upon Compound D treatment, KG1 cells were treated with DMSO alone or 200 nM Compound D. At 2, 4, 6, 8, 10, or 12 hours, the expression levels of various cellular components along ATF4 or apoptosis pathways were measured.
In two sensitive AML cell lines, KG-1 and HL-60, both a concentration-dependent decrease in GSPT1 protein and an increase in RNA expression of ATF3, CHOP, and SRSF3 and SRSF6 NMD transcripts at the 8-hour time point were compared to caspase 3/7 activation (apoptosis) at the 24-hour (FIG. 30A [KG-1]; FIG. 30C [HL-60]) and 48-hour (FIG. 30B [KG-1]; FIG. 30D [HL-60]) time points.
(§1) The reduction in the level of GSPT1 protein was concentration-dependent over the range of 3 to 1000 nM in eight of the nine AML cell lines and over the range of 300 to 1000 nM in one relatively insensitive AML cell line. The time course of the reduction in GSPT1 by Compound D also was studied for up to 48 hours. The progressive degradation of GSPT1 over the course of 1 to 20 hours was evident in the presence of all concentrations of Compound D studied from 3 to 300 nM in HNT-34, HL-60, and ML-2 cells, with little GSPT1 remaining by 20 hours at 100 or 300 nM Compound D in HNT-34 or HL-60 cells (FIG. 34 and FIG. 35C). Time-dependent reduction in GSPT1 was also observed in KG-1 and OCI-AML2 cells at 3 to 1000 nM Compound D, with little GSPT1 remaining in KG-1 cells at 100 to 300 nM at 24 hours or in OCI-AML2 cells at 300 and 1000 nM at 24 hours (FIG. 35D). Loss of GSPT1 occurred more slowly in Kasumi-1, AML-193, and F36-P cells.
Compound D-mediated GSPT1 reduction at 8 hours was compared to induction of caspase 3/7 activation (apoptosis) at 12, 24, and 48 hour time points in these nine AML cell lines. […] A positive association (r^2=0.50; R=0.71; p value=4.86E-002) was observed between the level of GSPT1 reduction and apoptosis induction in the AML cell panel (FIG. 36), with >90% GSPT1 reduction correlating with induction of apoptosis.

GSPT1 [3] = target: T1, GSPT1; test: GSPT1 protein reduction, western analysis, AML-193; format: cell-based; parameters: reduction in GSPT1 protein level was evaluated in human normal PBMCs; endogenous in cells; host or cells: primary PBMCs from normal donors (ID 4328, 4379) and AML patients (ID 11SH, 09P6)
Method: as §1, with “The” for “The reduction in the level of GSPT1 protein was concentration-dependent over the range of 3 to 1000 nM in eight of the nine AML cell lines and over the range of 300 to 1000 nM in one relatively insensitive AML cell line. The”, “F36-P” left out, “cells. […] A positive association (r^2=0.50; […]” for “cells.”

T1 sequence (P15170 1-637 isoform P15170-3): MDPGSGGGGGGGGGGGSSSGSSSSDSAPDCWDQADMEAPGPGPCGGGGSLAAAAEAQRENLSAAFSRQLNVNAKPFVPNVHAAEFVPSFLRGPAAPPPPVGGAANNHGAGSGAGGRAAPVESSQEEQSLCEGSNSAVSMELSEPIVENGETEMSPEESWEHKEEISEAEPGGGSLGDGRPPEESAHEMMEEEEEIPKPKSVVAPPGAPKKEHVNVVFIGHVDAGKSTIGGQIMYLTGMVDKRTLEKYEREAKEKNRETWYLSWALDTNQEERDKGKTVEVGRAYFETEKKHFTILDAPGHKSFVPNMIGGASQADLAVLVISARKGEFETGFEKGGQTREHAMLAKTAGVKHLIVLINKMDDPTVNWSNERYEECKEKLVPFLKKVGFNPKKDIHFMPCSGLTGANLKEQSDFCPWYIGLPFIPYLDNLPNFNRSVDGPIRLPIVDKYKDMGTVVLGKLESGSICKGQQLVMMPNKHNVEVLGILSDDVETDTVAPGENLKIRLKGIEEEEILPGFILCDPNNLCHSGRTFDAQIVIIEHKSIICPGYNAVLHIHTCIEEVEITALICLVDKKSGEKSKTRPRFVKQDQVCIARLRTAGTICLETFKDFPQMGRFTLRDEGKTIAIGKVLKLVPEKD
T1 sequence (Q96SW2 whole entry): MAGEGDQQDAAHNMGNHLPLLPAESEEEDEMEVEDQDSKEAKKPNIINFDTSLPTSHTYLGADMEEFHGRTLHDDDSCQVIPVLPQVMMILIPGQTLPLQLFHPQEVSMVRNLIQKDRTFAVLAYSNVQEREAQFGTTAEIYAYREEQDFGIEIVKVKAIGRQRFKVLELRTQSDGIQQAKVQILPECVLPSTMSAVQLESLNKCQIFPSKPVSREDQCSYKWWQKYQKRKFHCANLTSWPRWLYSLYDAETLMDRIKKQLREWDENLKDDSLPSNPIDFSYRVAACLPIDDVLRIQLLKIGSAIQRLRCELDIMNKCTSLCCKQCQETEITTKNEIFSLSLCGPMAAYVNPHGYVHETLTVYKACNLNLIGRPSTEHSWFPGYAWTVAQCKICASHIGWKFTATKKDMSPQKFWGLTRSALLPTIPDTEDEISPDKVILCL
T1 sequence (Q16531 whole entry partner): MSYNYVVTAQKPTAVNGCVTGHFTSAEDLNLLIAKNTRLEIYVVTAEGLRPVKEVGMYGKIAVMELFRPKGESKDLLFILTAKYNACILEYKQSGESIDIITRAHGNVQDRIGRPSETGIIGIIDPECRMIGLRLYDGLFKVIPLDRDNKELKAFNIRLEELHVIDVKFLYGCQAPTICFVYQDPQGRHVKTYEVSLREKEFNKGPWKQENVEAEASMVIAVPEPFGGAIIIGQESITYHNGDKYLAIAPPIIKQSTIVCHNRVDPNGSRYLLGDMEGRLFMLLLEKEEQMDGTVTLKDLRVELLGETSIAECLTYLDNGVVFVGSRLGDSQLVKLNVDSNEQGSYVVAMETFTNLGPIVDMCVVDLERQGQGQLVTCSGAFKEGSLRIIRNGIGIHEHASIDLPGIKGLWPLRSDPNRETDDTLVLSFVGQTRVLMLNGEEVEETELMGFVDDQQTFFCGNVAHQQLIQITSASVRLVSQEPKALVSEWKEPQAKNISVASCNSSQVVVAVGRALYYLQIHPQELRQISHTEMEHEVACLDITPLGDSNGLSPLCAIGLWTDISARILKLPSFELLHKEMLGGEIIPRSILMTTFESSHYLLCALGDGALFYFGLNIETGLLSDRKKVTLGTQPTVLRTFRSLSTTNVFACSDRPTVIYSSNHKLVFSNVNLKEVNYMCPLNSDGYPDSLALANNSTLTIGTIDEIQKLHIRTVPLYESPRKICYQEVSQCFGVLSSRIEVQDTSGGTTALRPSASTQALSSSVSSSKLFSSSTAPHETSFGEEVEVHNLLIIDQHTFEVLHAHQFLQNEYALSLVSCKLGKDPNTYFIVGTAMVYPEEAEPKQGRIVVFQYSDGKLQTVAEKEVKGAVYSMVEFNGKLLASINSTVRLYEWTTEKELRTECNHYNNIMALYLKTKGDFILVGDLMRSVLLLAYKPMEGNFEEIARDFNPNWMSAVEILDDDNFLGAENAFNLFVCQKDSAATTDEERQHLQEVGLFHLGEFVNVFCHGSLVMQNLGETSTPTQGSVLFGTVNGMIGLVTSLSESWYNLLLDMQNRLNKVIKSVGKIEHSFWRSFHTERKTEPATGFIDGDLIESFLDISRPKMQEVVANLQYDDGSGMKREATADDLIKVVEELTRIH
IKZF1, sequence (Q13422 whole entry): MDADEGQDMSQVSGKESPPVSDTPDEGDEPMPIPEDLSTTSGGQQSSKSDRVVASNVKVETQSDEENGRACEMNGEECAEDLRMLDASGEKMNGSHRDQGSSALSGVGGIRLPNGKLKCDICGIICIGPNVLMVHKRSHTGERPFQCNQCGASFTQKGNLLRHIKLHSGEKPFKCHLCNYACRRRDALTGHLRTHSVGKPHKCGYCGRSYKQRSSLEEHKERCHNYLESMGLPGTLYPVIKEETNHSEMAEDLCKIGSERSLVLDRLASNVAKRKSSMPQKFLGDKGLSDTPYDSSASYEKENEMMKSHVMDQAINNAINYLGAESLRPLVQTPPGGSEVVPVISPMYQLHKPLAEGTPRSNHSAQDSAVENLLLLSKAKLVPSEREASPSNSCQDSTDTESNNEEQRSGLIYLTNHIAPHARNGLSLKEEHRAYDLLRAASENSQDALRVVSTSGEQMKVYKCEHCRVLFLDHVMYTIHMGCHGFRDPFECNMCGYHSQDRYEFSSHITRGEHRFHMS
IKZF1, sequence (Q96SW2 whole entry): as the sequence (Q96SW2 whole entry) above
IKZF1, sequence (Q16531 whole entry partner): as the sequence (Q16531 whole entry partner) above

O=C1CCC(N2Cc3cc(CNC(=O)C(F)(F)c4ccc(Cl)cc4)ccc3C2=O)C(=O)N1 (centres unmarked) [Compound D, 2-(4-chlorophenyl)-N-((2-(2,6-dioxopiperidin-3-yl)-1-oxoisoindolin-5-yl)methyl)-2,2-difluoroacetamide]
IC50 (HNT-34 cells; HNT-34, read-out: anti-proliferative activity IC50): 3 nM
IC50 (HNT-34 cells; HNT-34, 72-hour CTG assay, read-out: IC50 of the anti-proliferative effect): 3 nM
time of PARP cleavage (PARP): 24 h
effect on IKZF1 level (IKZF1): induced degradation
effect on GSPT1 level (GSPT1 [1]): induced degradation
time of GSPT1 degradation (GSPT1 [2]; KG1, 200 nM): ≤ 2 h
degradation of GSPT1 (GSPT1 [2]; KG1, 200 nM, 8 or 12 hours): induced degradation
reduction of GSPT1 protein levels (GSPT1 [2]; KG-1, 100 nM Compound D, 4 hours): greater than 800
reduction of GSPT1 protein levels (GSPT1 [2]; KG-1, 100 nM or greater, 8-hour time point): > 90%
Percent Reduction at 100 nM Compound D GSPTI (8 hr) (GSPT1 [3]; AML-193, 100 nM, 8 hr): 49%
GSPT1 reduction (GSPT1 [3]; AML-193, 300 nM Compound D, 8 hours): 61%
